Data published in patent US8466273B2, “Hepatitis C virus inhibitors” (priority 2008, dated 2013).

Assays:
R6FLR-N cells = assay: Cytotoxic activity against HCV-replicating cells (Cell Counting Kit-8 / WST), R6FLR-N; assay type: cell-based
Experimental: In the same manner as described above, the siRNA were reversely transfected into R6FLR-N cells in a 96-well plate (Falcon). After incubation for 24, 48, and 72 hours, the number of viable cells was counted by a chromogenic reaction at 37° C. for 1 hour using Cell Counting Kit-8 (DOJINDO) following the manufacturer's protocol. The results are expressed relative to the cell survival rate in the groups treated with the control siRNAs defined as 100%. The experiment was performed in triplicate, and the average±S.D. was graphically shown. Statistical analysis was performed by Student's t-test.
FLR3-1 cells and R6FLR-N cells were incubated with the rabbit anti-BGT-1 polyclonal antibody or mouse anti-AKR1C1 polyclonal antibody described above for 72 hours. After incubation, the OD450/650 was measured by a chromogenic reaction at 37° C. for 1 hour using Cell Counting Kit-8 (DOJINDO) following the manufacturer's protocol. Normal rabbit serum was used as a control of the anti-BGT-1 antibody, and normal mouse serum was used as a control of the anti-AKR1C1 antibody. Each antibody was diluted at 1:100-1:10000 in 3% BSA/PBS. The experiment was performed in triplicate, and the average±S.D. was graphically shown. Statistical analysis was performed by Student's t-test.
(§1) In the same manner as described above, the cytotoxic activity of tiagabine (1 mM), NNC05-2090 (0.1-10 μM), and flufenamic acid (1 μM-1 mM) against HCV-replicating cells was evaluated by the WST assay. The experiment was performed in triplicate, and the average±S.D. was graphically shown. Statistical analysis was performed by Student's t-test.

[1] = system: HCV replication in R6FLR-N cells; assay: HCV replication activity by luciferase assay in R6FLR-N replicon cells; assay type: cell-based, Hepatitis C virus (genotype 1b); details: for replication of HCV (luminescence relative to control siRNA group defined as 100%): 4.2 nM siRNA, 72 hours post-treatment; for minimal effective concentration showing a significant inhibitory effect against HCV replication vs. the control siRNAs: data not shown
Description: The inhibitory effect against HCV replication can be determined by using HCV replicon cells (Lohmann et al., Science, 1999, 285 (5424):110-113). HCV replicon cells bear a luciferase gene as an indicator gene fused to a nonstructural protein (NS) region necessary for the replication of HCV. HCV replication activity can be measured by luciferase assays. Viral inhibitory activity can also be evaluated by using HCV infection systems (Wakita et al., Nat. Med. 2005, 11 (7), 791-796).
In this study, HCV-replicating cells (FLR3-1 and R6FLR-N) established from Huh-7 replicon cells (Lohmann et al., Science, 1999, 285 (5424):110-3) containing a luciferase-neo fusion gene and three HCV nonstructural protein regions (NS3-NS5b) after G418 selection were used. The use of these cells allows HCV replication activity to be measured by a luciferase assay. The HCV-replicating cells (FLR3-1 or R6FLR-N) were reverted by treatment with interferon α (100 IU/ml) for 72 hours or more to lower the HCV replication level and used as control cells (see Guo J T, Bichko V V, Seeger C., J. Virol. 2001, 75 (18):8516-23). The cells were incubated in Dulbecco's modified Eagle's medium (DMEM) GlutaMax I containing penicillin (100 U/ml), streptomycin (100 μg/ml), G418 (500 μg/ml), and 10% FCS (SIGMA).
The reverse transfection of the siRNAs was performed as follows. In each well of a 96-well plate (Falcon) containing Opti-MEM I medium was added each siRNA at a final concentration of 4.2, 12.6, and 25.2 nM and the plate was gently shaken. Lipofectamine™ RNAiMAX was mixed before use and added to the well (0.1 μl/well), and the plate was gently shaken and allowed to stand for 10-20 minutes at room temperature. R6FLR-N cells were plated at a density of 5×10^3 cells/well and incubated at 37° C. in 5% CO2 for 5 hours. The culture medium was replaced with 10% DMEM-Glutamax, and the cells were further incubated at 37° C. in 5% CO2. A plate containing the medium and Lipofectamine alone without siRNA (“Lipo”) and a plate containing the medium alone (“No”) were used as controls.
After incubation for 24, 48, and 72 hours, the HCV replication activity was measured by a luciferase assay. The replication activity is expressed relative to the luminescence intensity in the groups treated with the control siRNAs (“Ctrl”) defined as 100%. The experiment was performed in triplicate, and the average±S.D. was graphically shown. Statistical analysis was performed by Student's t-test.
FLR3-1 cells and R6FLR-N cells were incubated with a rabbit anti-BGT-1 polyclonal antibody (abcam) or a mouse anti-AKR1C1 polyclonal antibody (Abnova) for 72 hours. After incubation, the relative luminescence unit (RLU) was measured by a luciferase assay to evaluate the inhibitory activity against HCV replication. Normal rabbit serum was used as a control of the anti-BGT-1 antibody, and normal mouse serum was used as a control of the anti-AKR1C1 antibody. Each antibody was diluted at 1:100-1:10000 in 3% BSA/PBS. The experiment was performed in triplicate, and the average±S.D. was graphically shown. Statistical analysis was performed by Student's t-test.
R6FLR-N cells were also incubated with another BGT-1 inhibitor NNC05-2090 for 24-72 hours, and then analyzed by a luciferase assay in the same manner. NNC05-2090 was dissolved in DMSO at a final concentration of 0.1-10 μM (FIG. 7).

AKR1C1 gene = assay: Inhibition of AKR1C1 gene expression by siRNA, RT-PCR; assay type: cell-based, Homo sapiens; details: data not shown
Experimental: (§2) The expression of BGT-1 and AKR1C1 and the inhibition of the expression by their siRNAs were analyzed by Western blotting and PCR.
(§3) The inhibition of the expression of the BGT-1 gene and the AKR1C1 gene by their siRNAs was also verified by RT-PCR using the following primers (data not shown): […]

[2] = system: FLR3-1, R6FLR-N and JFH1 cells; assay: Cytotoxic activity of inhibitors by WST assay in FLR3-1, R6FLR-N and JFH1 cells; assay type: cell-based
Experimental: HCV-replicating cells were incubated with a BGT-1 inhibitor tiagabine or an AKR1C1 inhibitor flufenamic acid, and the inhibitory effect against HCV replication was evaluated by a luciferase assay. Tiagabine was dissolved in sterile distilled water at a final concentration of 1 mM, and flufenamic acid was dissolved in 1% EtOH at a final concentration of 1 μM-1 mM. The assay was performed after a reaction period of 24 hours in expectation of the rapid action of the inhibitors. The HCV-replicating cells used were FLR3-1, R6FLR-N (both genotype 1b) and JFH1 (genotype 2a: Kato et al., Gastroenterology, 2003, 125 (6):1808-17). The cells incubated in the medium alone were used as “controls”. The experiment was performed in triplicate, and the average±S.D. was graphically shown. Statistical analysis was performed by Student's t-test.
as §1

BGT-1 gene = assay: Inhibition of BGT-1 gene expression by siRNA, RT-PCR; assay type: cell-based, Homo sapiens; details: data not shown
Experimental: as §2, §3

siRNA of AKR1C1: siRNA of the AKR1C1 gene, 5′-AAGUAAAGCUUUAGAGGCCACCAAA-3′, nucleotides 93-117 (chemistry not given here)
cell survival rate (relative to control siRNA group defined as 100%) (R6FLR-N cells; 4.2 nM siRNA, 72 hours post-treatment): 53±18%
replication of HCV (luminescence relative to control siRNA group defined as 100%) ([1]; R6FLR-N cells): 40±1%
minimal effective concentration showing a significant inhibitory effect against HCV replication vs. the control siRNAs [1]: 0.5 nM
inhibition of the expression of the AKR1C1 gene by RT-PCR (AKR1C1 gene): verified

O=C(O)c1ccccc1Nc1cccc(C(F)(F)F)c1 [flufenamic acid]
OD value as % of the value of the 0 μM group (WST assay) ([2]; 100 μM, all types of HCV-replicating cells): ≤ 80%

Cc1ccsc1C(=CCCN1CCC[C@@H](C(=O)O)C1)c1sccc1C [tiagabine]
cytotoxic activity against HCV-replicating cells (WST assay) ([2]; 1 mM, 24 hours, FLR3-1, R6FLR-N, JFH1 cells): significantly injured HCV-replicating cells in only FLR3-1 cells

siRNA of BGT-1: siRNA of the BGT-1 gene, 5′-CAACAAGAUGGAGUUUGUGCUGUCA-3′, nucleotides 120-144 (chemistry not given here)
cytotoxic activity against HCV-replicating cells (R6FLR-N cells; any siRNA concentration tested (4.2, 12.6, 25.2 nM)): any significant cytotoxic activity was not detected
inhibition of the expression of the BGT-1 gene by RT-PCR (BGT-1 gene): verified
replication of HCV (luminescence relative to control siRNA group defined as 100%) ([1]; R6FLR-N cells): ≤ 10±4%
minimal effective concentration showing a significant inhibitory effect against HCV replication vs. the control siRNAs [1]: 0.5 nM

COc1ccccc1C1(O)CCN(CCCn2c3ccccc3c3ccccc32)CC1 [NNC05-2090, 1-(3-(9H-carbazol-9-yl)-1-propyl)-4-(2-methoxyphenyl)-4-piperidinol, reference compound]
OD value as % of the vehicle group (WST assay) (R6FLR-N cells; 3 μM, 48 hours post-treatment): about 26%
OD value as % of the vehicle group (WST assay) (R6FLR-N cells; 10 μM, 24 hours post-treatment): about 23%
RLU vs. the vehicle group (DMSO) ([1]; 10 μM, 24 hours, R6FLR-N cells): 30%
